{
  "source": "patent EP2296651B1",
  "about": "“5-HYDROXYMETHYL-OXAZOLIDIN-2-ONE DERIVATIVES FOR TREATING BACTERIAL INTESTINAL DISEASES” (Actelion Pharmaceuticals Ltd., priority 2008, dated 2009)",
  "key": {"[1]": {"tested_on": "E. faecalis H 7094", "test": "Broth microdilution MIC, aerobic Gram-positive bacteria", "conditions": "Enterococcus faecalis, H7094, 48 h"}, "[2]": {"tested_on": "S. aureus S1 (LZD-R)", "test": "Broth microdilution MIC, aerobic Gram-positive bacteria", "conditions": "Staphylococcus aureus, 48 h"}, "[3]": {"tested_on": "E. faecium H 7965", "test": "Broth microdilution MIC, aerobic Gram-positive bacteria", "conditions": "Enterococcus faecium, H7965, 48 h"}, "[4]": {"tested_on": "E. faecium A 962", "test": "Broth microdilution MIC, aerobic Gram-positive bacteria", "conditions": "Enterococcus faecium, A962, 48 h"}, "[5]": {"tested_on": "E. faecalis H 4060", "test": "Broth microdilution MIC, aerobic Gram-positive bacteria", "conditions": "Enterococcus faecalis, H4060, 48 h"}, "[6]": {"tested_on": "E. faecalis ATCC 29212", "test": "Broth microdilution MIC, aerobic Gram-positive bacteria", "conditions": "Enterococcus faecalis, ATCC29212, 48 h"}, "[7]": {"tested_on": "C. difficile ATCC 43596", "test": "Broth microdilution MIC, anaerobic", "assay_type": "cell-based, Clostridium difficile", "conditions": "Clostridioides difficile, ATCC43596, 48h at 37°C, read-out: MIC regarding C. difficile ATCC 43596"}, "[8]": {"tested_on": "E. faecium ATCC 19434", "test": "Broth microdilution MIC, aerobic Gram-positive bacteria", "conditions": "Enterococcus faecium, ATCC19434, 48 h"}, "[9]": {"tested_on": "209 diverse clinical isolates of C. difficile", "test": "CLSI agar dilution MIC, clinical isolates", "assay_type": "cell-based, Clostridium difficile", "conditions": "Clostridioides difficile, 48 h"}, "[10]": {"tested_on": "S. aureus ATCC 43300 (MRSA)", "test": "Broth microdilution MIC, aerobic Gram-positive bacteria", "conditions": "Staphylococcus aureus, 48 h"}, "[11]": {"tested_on": "E. faecium H 7937", "test": "Broth microdilution MIC, aerobic Gram-positive bacteria", "conditions": "Enterococcus faecium, H7937, 48 h"}, "[12]": {"tested_on": "S. aureus A-798 (MRSA)", "test": "Broth microdilution MIC, aerobic Gram-positive bacteria", "conditions": "Staphylococcus aureus, 48 h"}, "[13]": {"tested_on": "E. faecium A 949", "test": "Broth microdilution MIC, aerobic Gram-positive bacteria", "conditions": "Enterococcus faecium, A949, 48 h"}, "[14]": {"tested_on": "E. faecalis H 6897", "test": "Broth microdilution MIC, aerobic Gram-positive bacteria", "conditions": "Enterococcus faecalis, H6897, 48 h"}, "[15]": {"tested_on": "E. faecium H 7969", "test": "Broth microdilution MIC, aerobic Gram-positive bacteria", "conditions": "Enterococcus faecium, H7969, 48 h"}, "[16]": {"tested_on": "C. perfringens DSM 756", "test": "microbe, parasite or virus in culture", "assay_type": "cell-based", "conditions": "Clostridium perfringens, DSM756, 48 h, read-out: MIC regarding C. perfringens DSM 756"}, "[17]": {"tested_on": "E. faecium H 7966", "test": "Broth microdilution MIC, aerobic Gram-positive bacteria", "conditions": "Enterococcus faecium, H7966, 48 h"}, "[18]": {"tested_on": "E. faecium L1 (LZD-R)", "test": "Broth microdilution MIC, aerobic Gram-positive bacteria", "conditions": "Enterococcus faecium, 48 h"}, "[19]": {"tested_on": "E. faecium H 9070", "test": "Broth microdilution MIC, aerobic Gram-positive bacteria", "conditions": "Enterococcus faecium, H9070, 48 h"}, "[20]": {"tested_on": "E. faecalis H 7460", "test": "Broth microdilution MIC, aerobic Gram-positive bacteria", "conditions": "Enterococcus faecalis, H7460, 48 h"}, "[21]": {"tested_on": "C. difficile ATCC 9689", "test": "Broth microdilution MIC, anaerobic", "assay_type": "cell-based, Clostridium difficile", "conditions": "Clostridioides difficile, ATCC9689, 48h at 37°C, read-out: MIC regarding C. difficile ATCC 9689"}, "[22]": {"tested_on": "S. aureus ATCC 29213", "test": "Broth microdilution MIC, aerobic Gram-positive bacteria", "conditions": "Staphylococcus aureus, ATCC29213, 48 h"}, "[23]": {"tested_on": "E. faecalis H 6279", "test": "Broth microdilution MIC, aerobic Gram-positive bacteria", "conditions": "Enterococcus faecalis, H6279, 48 h"}, "[24]": {"tested_on": "C. difficile NC 13366", "test": "Broth microdilution MIC, anaerobic", "assay_type": "cell-based, Clostridium difficile", "conditions": "Clostridioides difficile, NC13366, 48h at 37°C, quinolone-resistant hypervirulent strain, read-out: MIC regarding C. difficile NC 13366"}, "[25]": {"tested_on": "C. difficile A-1050 (ATCC 43596)", "test": "Spore formation at sub-MIC concentrations", "assay_type": "cell-based", "conditions": "0.5x the MIC; 4 days anaerobic incubation at 37°C"}, "[26]": {"tested_on": "C. difficile strain NC 13366", "assay_type": "cell-based"}, "[27]": {"tested_on": "C. difficile strain NC 13366", "test": "microbe, parasite or virus in culture", "assay_type": "cell-based"}},
  "note": "Like-named read-outs stand apart in the source and are kept apart here.",
  "data": [
    {"smiles": "CC(=O)NC[C@H]1CN(c2ccc(N3CCOCC3)c(F)c2)C(=O)O1", "note": "[Linezolid]", "values": [
      {"measurement": "MIC", "setting": "[1]", "value": 4, "unit": "µg/mL"},
      {"measurement": "MIC", "setting": "[2]", "value": "> 32", "unit": "µg/mL"},
      {"measurement": "MIC", "setting": "[3]", "value": 2, "unit": "µg/mL"},
      {"measurement": "MIC", "setting": "[4]", "value": 4, "unit": "µg/mL"},
      {"measurement": "MIC", "setting": "[5]", "value": 2, "unit": "µg/mL"},
      {"measurement": "MIC", "setting": "[6]", "value": 2, "unit": "µg/mL"},
      {"measurement": "MIC", "setting": "[7]", "value": 8, "unit": "µg/mL"},
      {"measurement": "MIC", "setting": "[8]", "value": 2, "unit": "µg/mL"},
      {"measurement": "MIC90", "setting": "[9]; 209 clinical isolates of C. difficile, read-out: MIC90", "value": 8, "unit": "µg/mL"},
      {"measurement": "MIC", "setting": "[10]", "value": 2, "unit": "µg/mL"},
      {"measurement": "MIC", "setting": "[11]", "value": 1, "unit": "µg/mL"},
      {"measurement": "MIC", "setting": "[12]", "value": 2, "unit": "µg/mL"},
      {"measurement": "MIC", "setting": "[13]", "value": 2, "unit": "µg/mL"},
      {"measurement": "MIC", "setting": "[14]", "value": 4, "unit": "µg/mL"},
      {"measurement": "MIC", "setting": "[15]", "value": 4, "unit": "µg/mL"},
      {"measurement": "MIC", "setting": "[16]", "value": 4, "unit": "µg/mL"},
      {"measurement": "MIC", "setting": "[17]", "value": 1, "unit": "µg/mL"},
      {"measurement": "MIC", "setting": "[18]", "value": "> 32", "unit": "µg/mL"},
      {"measurement": "MIC", "setting": "[19]", "value": 2, "unit": "µg/mL"},
      {"measurement": "MIC", "setting": "[20]", "value": 16, "unit": "µg/mL"},
      {"measurement": "MIC", "setting": "[21]", "value": 2, "unit": "µg/mL"},
      {"measurement": "MIC", "setting": "[22]", "value": 2, "unit": "µg/mL"},
      {"measurement": "MIC", "setting": "[23]", "value": 2, "unit": "µg/mL"},
      {"measurement": "MIC", "setting": "[24]", "value": 1, "unit": "µg/mL"}
    ]},
    {"smiles": "CN[C@H](CC(C)C)C(=O)N[C@H]1C(=O)N[C@@H](CC(N)=O)C(=O)N[C@H]2C(=O)N[C@H]3C(=O)N[C@H](C(=O)N[C@H](C(=O)O)c4cc(O)cc(O)c4-c4cc3ccc4O)[C@H](O)c3ccc(c(Cl)c3)Oc3cc2cc(c3O[C@@H]2O[C@H](CO)[C@@H](O)[C@H](O)[C@H]2O[C@H]2C[C@](C)(N)[C@H](O)[C@H](C)O2)Oc2ccc(cc2Cl)[C@H]1O", "note": "[vancomycin]", "values": [
      {"measurement": "MIC", "setting": "[1]", "value": "> 32", "unit": "µg/mL"},
      {"measurement": "MIC", "setting": "[2]", "value": 1, "unit": "µg/mL"},
      {"measurement": "MIC", "setting": "[3]", "value": "> 32", "unit": "µg/mL"},
      {"measurement": "MIC", "setting": "[4]", "value": "> 32", "unit": "µg/mL"},
      {"measurement": "MIC", "setting": "[5]", "value": "> 32", "unit": "µg/mL"},
      {"measurement": "MIC", "setting": "[6]", "value": 1, "unit": "µg/mL"},
      {"measurement": "MIC", "setting": "[8]", "value": 1, "unit": "µg/mL"},
      {"measurement": "spores of total cell count", "setting": "[25]", "value": "> 90", "unit": "%"},
      {"measurement": "MIC90", "setting": "[9]", "value": 2, "unit": "µg/mL"},
      {"measurement": "MIC", "setting": "[10]", "value": 1, "unit": "µg/mL"},
      {"measurement": "MIC", "setting": "[11]", "value": "> 32", "unit": "µg/mL"},
      {"measurement": "MIC", "setting": "[12]", "value": 1, "unit": "µg/mL"},
      {"measurement": "MIC", "setting": "[13]", "value": "> 32", "unit": "µg/mL"},
      {"measurement": "MIC", "setting": "[14]", "value": "> 32", "unit": "µg/mL"},
      {"measurement": "MIC", "setting": "[15]", "value": "> 32", "unit": "µg/mL"},
      {"measurement": "MIC", "setting": "[17]", "value": "> 32", "unit": "µg/mL"},
      {"measurement": "de novo toxin A production", "setting": "[26]", "value": "did not inhibit toxin A production under these conditions or did so only weakly"},
      {"measurement": "MIC", "setting": "[18]", "value": 0.5, "unit": "µg/mL"},
      {"measurement": "MIC", "setting": "[19]", "value": "> 32", "unit": "µg/mL"},
      {"measurement": "MIC", "setting": "[20]", "value": "> 32", "unit": "µg/mL"},
      {"measurement": "toxin B activities of the supernatants, reduction compared to the untreated control", "setting": "[27]", "value": "not reduced"},
      {"measurement": "inhibition at 8 µg/mL", "setting": "[27]; Clostridioides difficile, NC13366, CHO, 120 h, read-out: toxin B activities of the supernatants, reduction compared to the untreated control", "value": 30, "unit": "%"},
      {"measurement": "MIC", "setting": "[22]", "value": 1, "unit": "µg/mL"},
      {"measurement": "MIC", "setting": "[23]", "value": "> 32", "unit": "µg/mL"}
    ]},
    {"smiles": "O=C(O)c1cn(C2CC2)c2nc(N3CCC(O)(COc4ccc(N5C[C@H](CO)OC5=O)cc4F)CC3)c(F)cc2c1=O", "note": "[Example 2, 1-cyclopropyl-6-fluoro-7-{4-[2-fluoro-4-((R)-5-hydroxymethyl-2-oxo-oxazolidin-3-yl)phenoxymethyl]-4-hydroxy-piperidin-1-yl}-4-oxo-1,4-dihydro-[1,8]naphthyridine-3-carboxylic acid]", "values": [
      {"measurement": "MIC", "setting": "[7]", "value": 0.06, "unit": "µg/mL"},
      {"measurement": "MIC", "setting": "[16]", "value": "≤ 0.03", "unit": "µg/mL"},
      {"measurement": "MIC", "setting": "[24]", "value": 0.03, "unit": "µg/mL"}
    ]},
    {"smiles": "Cc1ncc([N+](=O)[O-])n1CCO", "note": "[metronidazole]", "values": [
      {"measurement": "spores of total cell count", "setting": "[25]", "value": "> 90", "unit": "%"},
      {"measurement": "de novo toxin A production", "setting": "[26]; 1 and 8 µg/ml, supernatants at day 5, high density stationary phase cultures", "value": "did not inhibit toxin A production under these conditions or did so only weakly"}
    ]}
  ]
}
